Source: patent publication US7957909B2, “Identification, monitoring and treatment of disease and characterization of biological condition using gene expression profiles” (Source Precision Medicine, Inc., priority 1999, dated 2011)

Columns and labels:
[1] = system: Inflammation Gene Expression Panel of Table 1; test: Inflammation index of stable rheumatoid arthritis patients under three treatment regimens (FIGS. 21-23); format: in vivo, human; conditions: for inflammation index compared to normal: 10 stable rheumatoid arthritis patients per treatment group
Text: (§1) FIG. 17A further illustrates the consistency of inflammatory gene expression, illustrated here with respect to 7 loci of (of the Inflammation Gene Expression Panel of Table 1), in a population of 44 normal, undiagnosed blood donors. For each individual locus is shown the range of values lying within ±2 standard deviations of the mean expression value, which corresponds to 95% of a normally distributed population. Notwithstanding the great width of the confidence interval (95%), the measured gene expression value (ΔCT)—remarkably—still lies within 10% of the mean, regardless of the expression level involved. As described in further detail below, for a given biological condition an index can be constructed to provide a measurement of the condition. This is possible as a result of the conjunction of two circumstances: (i) there is a remarkable consistency of Gene Expression Profiles with respect to a biological condition across a population and (ii) there can be employed procedures that provide substantially reproducible measurement of constituents in a Gene Expression Panel giving rise to a Gene Expression Profile, under measurement conditions wherein specificity and efficiencies of amplification for all constituents of the panel are substantially similar and which therefore provides a measurement of a biological condition. Accordingly, a function of the expression values of representative constituent loci of FIG. 17A is here used to generate an inflammation index value, which is normalized so that a reading of 1 corresponds to constituent expression values of healthy subjects, as shown in the right-hand portion of FIG. 17A.
This subject in fact was also on a regimen of an anti-inflammation steroid (prednisone) that was being tapered; within approximately one week after the inflammation index was sampled, the subject experienced a significant flare of clinical symptoms.

[2] = system: Inflammation Gene Expression Panel of Table 1; test: Inflammation index of a single subject with inflammatory bowel disease treated with Remicade (FIG. 24); format: in vivo, human
Text: as §1
FIG. 24 illustrates use of the inflammation index for assessment of a single subject suffering from inflammatory bowel disease, for whom treatment with Remicade was initiated in three doses. […] Again, the index, besides providing a measure of biological condition, is here used to measure the effectiveness of therapy (Remicade), as well as to provide a target for therapeutic intervention in terms of both dose and schedule.

[3] = system: Inflammation Gene Expression Panel of Table 1; conditions: studies have shown; some subjects; cited from earlier work
[4] = system: IL1A, IL1B, TNF, IFNG and IL10; test: Acute Inflammation Index from blood of a single patient treated for optic neuritis (FIG. 2); format: in vivo, human; conditions: single patient with optic neuritis
Text: (§2) For measuring the amount of a particular RNA in a sample, we have used methods known to one of ordinary skill in the art to extract and quantify transcribed RNA from a sample with respect to a constituent of a Gene Expression Panel. (See detailed protocols below. Also see PCT application publication number WO 98/24935 herein incorporated by reference for RNA analysis protocols). Briefly, RNA is extracted from a sample such as a tissue, body fluid, or culture medium in which a population of a subject might be growing. For example, cells may be lysed and RNA eluted in a suitable solution in which to conduct a DNAse reaction. First strand synthesis may be performed using a reverse transcriptase. Gene amplification, more specifically quantitative PCR assays, can then conducted and the gene of interest size calibrated against a marker such as 18S rRNA (Hirayama et al., Blood 92, 1998: 46-52). Samples are measured in multiple duplicates, for example, 4 replicates. Relative quantitation of the mRNA is determined by the difference in threshhold cycles between the internal control and the gene of interest. In an embodiment of the invention, quantitative PCR is performed using amplification, reporting agents and instruments such as those supplied commercially by Applied Biosystems (Foster City, Calif.). […]

[5] = system: IL1B; test: Whole blood response to E. coli filtrate alone and with polymyxin B (FIG. 34); format: cell-based, human; conditions: polymyxin B added to E. coli filtrate
Text: FIGS. 27 through 41 illustrate the use of gene expression panels in early identification and monitoring of infectious disease. These figures plot the response, in expression products of the genes indicated, in whole blood, to the administration of various infectious agents or products associated with infectious agents. In each figure, the gene expression levels are “calibrated”, as that term is defined herein, in relation to baseline expression levels determined with respect to the whole blood prior to administration of the relevant infectious agent. In this respect the figures are similar in nature to various figures of our below-referenced patent application WO 01/25473 (for example, FIG. 15 therein). The concentration change is shown ratiometrically, and the baseline level of 1 for a particular gene locus corresponds to an expression level for such locus that is the same, monitored at the relevant time after addition of the infectious agent or other stimulus, as the expression level before addition of the stimulus. Ratiometric changes in concentration are plotted on a logarithmic scale. Bars below the unity line represent decreases in concentration and bars above the unity line represent increases in concentration, the magnitude of each bar indicating the magnitude of the ratio of the change. […]
The responses were monitored at 2, 6, and 24 hours after administration. […]

[6] = system: 5 genes (of the Inflammation Gene Expression Panel of Table 1); test: Gene expression in whole blood samples from a subject given prednisone, challenged with lipopolysaccharide (FIG. 15); format: in vivo, human; conditions: blood challenged with 0.1 ng/ml lipopolysaccharide
Text: For measuring the amount of a particular RNA in a sample, we have used methods known to one of ordinary skill in the art to extract and quantify transcribed RNA from a sample with respect to a constituent of a Gene Expression Panel. (See detailed protocols below. Also see PCT application publication number WO 98/24935 herein incorporated by reference for RNA analysis protocols). Briefly, RNA is extracted from a sample such as a tissue, body fluid, or culture medium in which a population of a subject might be growing. For example, cells may be lysed and RNA eluted in a suitable solution in which to conduct a DNAse reaction. First strand synthesis may be performed using a reverse transcriptase. Gene amplification, more specifically quantitative PCR assays, can then conducted and the gene of interest size calibrated against a marker such as 18S rRNA (Hirayama et al., Blood 92, 1998: 46-52). Samples are measured in multiple duplicates, for example, 4 replicates. Relative quantitation of the mRNA is determined by the difference in threshhold cycles between the internal control and the gene of interest. In an embodiment of the invention, quantitative PCR is performed using amplification, reporting agents and instruments such as those supplied commercially by Applied Biosystems (Foster City, Calif.). Given a defined efficiency of amplification of target transcripts, the point (e.g., cycle number) that signal from amplified target template is detectable may be directly related to the amount of specific message transcript in the measured sample. Similarly, other quantifiable signals such as fluorescence, enzyme activity, disintegrations per minute, absorbance, etc., when correlated to a known concentration of target templates (e.g., a reference standard curve) or normalized to a standard with limited variability can be used to quantify the number of target templates in an unknown sample.
Specific RNAs are amplified using message specific primers or random primers. […]

[7] = system: Inflammation Gene Expression Panel of Table 1; test: Inflammatory gene expression in whole blood of a human subject after a single oral dose of prednisone (FIG. 14); format: in vivo
Text: as §2

[8] = 10 stable rheumatoid arthritis patients

## Remicade: another TNF inhibitor
[1]; [8]
  abnormally low inflammation index in two of the patients: suggesting an immunosuppressive response
[1]
  inflammation index compared to normal: all but one of the patients being treated with Remicade have an inflammation index at or below normal
[2]; 24 hours after the first treatment
  inflammation index: returned to the normal range
[2]; just prior to the second dose
  inflammation index: elevated
[2]; prior to the third dose
  inflammation index: in the normal range
[3]
  association with infections in studies: associated with serious infections in some subjects

## C[C@H]1C[C@@H]2[C@H]([C@@H](O)C[C@@]3(C)[C@H]2CC[C@]3(O)C(=O)COC(=O)CCC(=O)O)[C@@]2(C)C=CC(=O)C=C12 [solumedrol]
[4]; treatment with IV solumedrol at 1 gram per day
  acute inflammation index: falls rapidly

## CN(Cc1cnc2nc(N)nc(N)c2n1)c1ccc(C(=O)N[C@@H](CCC(=O)O)C(=O)O)cc1 [methotrexate]
[1]
  inflammation index compared to normal: elevated compared to normal

## Enbrel
[1]; [8]
  patients with inflammation index in the normal range: 80%
[1]
  inflammation index compared to normal: comes much closer to normal

## polymyxin B
[5]
  effect on the response of IL1B locus to E. coli filtrate: did not affect the response

## C[C@]12C=CC(=O)C=C1CC[C@@H]1[C@@H]2C(=O)C[C@@]2(C)[C@H]1CC[C@]2(O)C(=O)CO [prednisone]
[4]; oral prednisone at 60 mg per day tapered to 10 mg per day
  acute inflammation index: goes up
[6]; 24 hours post administration
  gene expression of the 5 loci in relation to t=0: inhibitory effect of the prednisone is no longer apparent
  loci at which gene expression is higher than at t=0 (rebound effect): 3 of the 5 loci
[6]; two hours after single dose
  gene expression of the 5 loci in relation to t=0: dramatically reduced gene expression
[7]; 2 hr post single 60 mg oral dose
  expression of inflammation-related gene loci relative to baseline sample: decreased expression of most of inflammation-related gene loci
[7]; 24 hr post single 60 mg oral dose, loci with reduced expression at 2 hours
  expression of inflammation-related gene loci relative to baseline sample: elevated gene expression levels
